How the values were obtained:
Type in all cases: in vivo
[1] = system: Surinam grass (Brachiaria decumbens); assay: Test B postemergence; settings: 13 to 15 days
Outline: (§1)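 Greenhouse test: chemicals are formulated in a surfactant-containing non-phytotoxic solvent and applied either preemergence to planted seeds or postemergence to plants 2 to 18 cm tall. Response is rated visually versus controls after 13 to 15 days, 0 meaning no effect and 100 complete control.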

[2] = system: barnyardgrass (Echinochloa crus-galli); assay: Test B postemergence; settings: 13 to 15 days
Outline: as §1

[3] = system: blackgrass (Alopecurus myosuroides); assay: Test B postemergence; settings: 13 to 15 days
Outline: as §1

[4] = system: cocklebur (Xanthium strumarium); assay: Test B postemergence; settings: 13 to 15 days
Outline: as §1

[5] = system: corn (Zea mays); assay: Test B postemergence; settings: 13 to 15 days
Outline: as §1

[6] = system: crabgrass (Digitaria sanguinalis); assay: Test B postemergence; settings: 13 to 15 days
Outline: as §1

[7] = system: giant foxtail (Setaria faberii); assay: Test B postemergence; settings: 13 to 15 days
Outline: as §1

[8] = system: lambsquarters (Chenopodium album); assay: Test B postemergence; settings: Rate 500 g/ha, scale 0 to 100, 0 is no effect, 100 is complete control, 13 to 15 days
Outline: as §1

[9] = system: morning glory (Ipomoea hederacea); assay: Test B postemergence; settings: Rate 500 g/ha, scale 0 to 100, 0 is no effect, 100 is complete control, 13 to 15 days
Outline: as §1

[10] = system: pigweed (Amaranthus retroflexus); assay: Test B postemergence; settings: Rate 500 g/ha, scale 0 to 100, 0 is no effect, 100 is complete control, 13 to 15 days
Outline: as §1

[11] = system: velvetleaf (Abutilon theophrasti); assay: Test B postemergence; settings: Rate 500 g/ha, scale 0 to 100, 0 is no effect, 100 is complete control, 13 to 15 days
Outline: as §1

[12] = system: wheat (Triticum aestivum); assay: Test B postemergence; settings: Rate 500 g/ha, scale 0 to 100, 0 is no effect, 100 is complete control, 13 to 15 days
Outline: as §1

[13] = system: wild oat (Avena fatua); assay: Test B postemergence; settings: Rate 500 g/ha, scale 0 to 100, 0 is no effect, 100 is complete control, 13 to 15 days
Outline: as §1

[14] = system: Surinam grass (Brachiaria decumbens); assay: Test B preemergence
Outline: as §1

[15] = system: barnyardgrass (Echinochloa crus-galli); assay: Test B preemergence
Outline: as §1

[16] = system: cocklebur (Xanthium strumarium); assay: Test B preemergence
Outline: as §1

[17] = system: corn (Zea mays); assay: Test B preemergence
Outline: as §1

[18] = system: crabgrass (Digitaria sanguinalis); assay: Test B preemergence
Outline: as §1

[19] = system: giant foxtail (Setaria faberii); assay: Test B preemergence
Outline: as §1

[20] = system: lambsquarters (Chenopodium album); assay: Test B preemergence
Outline: as §1

[21] = system: morning glory (Ipomoea hederacea); assay: Test B preemergence
Outline: as §1

[22] = system: pigweed (Amaranthus retroflexus); assay: Test B preemergence
Outline: as §1

[23] = system: rice (Oryza saliva); assay: Test B preemergence
Outline: as §1

[24] = system: velvetleaf (Abutilon theophrasti); assay: Test B preemergence
Outline: as §1

[25] = system: barnyardgrass (Echinochloa crus-galli); assay: Test C flooded paddy test; settings: for Barnyardgrass plant response rating: Flooded Paddy, scale 0 to 100, 0 no effect, 100 complete control; for Plant response rating, Barnyardgrass: flooded paddy test, scale 0 to 100 (0 no effect, 100 complete control)
Outline: (§2)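 Response on a 0-to-100 scale (no effect to complete control) was assessed by eye versus controls. Plants had reached 2 leaves when treated in flooded paddy conditions. The assessment took place after 12–14 days of greenhouse growth.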

[26] = system: duck salad (Heteranthera limosa); assay: Test C flooded paddy test; settings: for Ducksalad plant response rating: Flooded Paddy, scale 0 to 100, 0 no effect, 100 complete control; for Plant response rating, Ducksalad: flooded paddy test, scale 0 to 100 (0 no effect, 100 complete control)
Outline: as §2

[27] = system: rice (Oryza saliva); assay: Test C flooded paddy test; settings: for Rice plant response rating: Flooded Paddy, scale 0 to 100, 0 no effect, 100 complete control; for Plant response rating, Rice: flooded paddy test, scale 0 to 100 (0 no effect, 100 complete control)
Outline: as §2

[28] = system: smallflower flatsedge (Cyperus difformis); assay: Test C flooded paddy test; settings: for Flatsedge plant response rating: Flooded Paddy, scale 0 to 100, 0 no effect, 100 complete control; for Plant response rating, Flatsedge: flooded paddy test, scale 0 to 100 (0 no effect, 100 complete control)
Outline: as §2

[29] = Rate 125 g/ha, scale 0 (no effect) to 100 (complete control)
[30] = Rate 500 g/ha, scale 0 to 100, 0 is no effect, 100 is complete control
[31] = Preemergence, Rate 500 g/ha, scale 0 to 100, 0 no effect, 100 complete control
[32] = preemergence, Rate 125 g/ha, scale of 0 to 100 where 0 is no effect and 100 is complete control, 13 to 15 days

Cc1ccc(N2CCC(n3ccc(C(C)(C)C)n3)C2=O)cc1OCCI (centres unmarked) [Compound 108]
70: Plant response rating, Morningglory [9]
90: Flatsedge plant response rating ([28]; Rate 500 g/ha)
80: Plant response rating, Lambsquarters [8]
60: Plant response rating, Velvetleaf [11] | Plant response rating, Pigweed [22, 31]
40: Plant response rating, Cocklebur [4, 30] | Plant response rating, Pigweed [10]
100: Plant response rating, Lambsquarters [20, 31] | Plant response rating, Lambsquarters [20, 32]
0: Plant response rating, Surinam grass [1, 29] | Plant response rating, Barnyardgrass [2, 29] | Plant response rating, Barnyardgrass [2, 30] | Plant response rating, Blackgrass [3, 29] | Plant response rating, Blackgrass [3, 30] | Plant response rating, Corn [5, 29] | Plant response rating, Corn [5, 30] | Plant response rating, Crabgrass [6, 29] | Plant response rating, Crabgrass [6, 30] | Plant response rating, Foxtail, Giant [7, 29] | Plant response rating, Foxtail, Giant [7, 30] | Plant response rating, Wheat [12] | Plant response rating, Wild Oat [13] | Plant response rating, Surinam grass [14, 32] | Plant response rating, Barnyardgrass [15, 31] | Plant response rating, Barnyardgrass [15, 32] | Plant response rating, Cocklebur [16, 31] | Plant response rating, Cocklebur [16, 32] | Plant response rating, Corn [17, 31] | Plant response rating, Corn [17, 32] | Plant response rating, Crabgrass [18, 31] | Plant response rating, Crabgrass [18, 32] | Plant response rating, Foxtail, Giant [19, 32] | Plant response rating, Morningglory [21, 31] | Plant response rating, Morningglory [21, 32] | Plant response rating, Rice [23, 31] | Plant response rating, Rice [23, 32] | Plant response rating, Velvetleaf [24, 31] | Plant response rating, Velvetleaf [24, 32] | Barnyardgrass plant response rating ([25]; Rate 250 g/ha) | Plant response rating, Barnyardgrass ([25]; Rate 62 g/ha) | Plant response rating, Barnyardgrass ([25]; Rate 125 g/ha) | Ducksalad plant response rating ([26]; Rate 250 g/ha) | Ducksalad plant response rating ([26]; Rate 500 g/ha) | Plant response rating, Ducksalad ([26]; Rate 62 g/ha) | Plant response rating, Ducksalad ([26]; Rate 125 g/ha) | Rice plant response rating ([27]; Rate 250 g/ha) | Rice plant response rating ([27]; Rate 500 g/ha) | Plant response rating, Rice ([27]; Rate 62 g/ha) | Plant response rating, Rice ([27]; Rate 125 g/ha) | Plant response rating, Flatsedge ([28]; Rate 62 g/ha) | Plant response rating, Flatsedge ([28]; Rate 125 g/ha)
20: Plant response rating, Surinam grass [1, 30] | Plant response rating, Cocklebur [4, 29] | Plant response rating, Foxtail, Giant [19, 31] | Plant response rating, Pigweed [22, 32] | Barnyardgrass plant response rating ([25]; Rate 500 g/ha)
30: Plant response rating, Surinam grass [14, 31] | Flatsedge plant response rating ([28]; Rate 250 g/ha)

Cc1ccc(N2CCC(n3ccc(C(C)(C)C)n3)C2=O)cc1OC(C)C (centres unmarked) [Compound 110]
40: Plant response rating, Surinam grass [14, 31]
100: Plant response rating, Crabgrass [18, 31] | Plant response rating, Crabgrass [18, 32] | Plant response rating, Lambsquarters [20, 31] | Plant response rating, Pigweed [22, 31] | Plant response rating, Pigweed [22, 32] | Flatsedge plant response rating ([28]; Rate 250 g/ha) | Flatsedge plant response rating ([28]; Rate 500 g/ha)
80: Plant response rating, Velvetleaf [24, 31] | Barnyardgrass plant response rating ([25]; Rate 500 g/ha) | Rice plant response rating ([27]; Rate 500 g/ha)
30: Plant response rating, Cocklebur [4, 29] | Plant response rating, Cocklebur [4, 30] | Plant response rating, Barnyardgrass [15, 32] | Plant response rating, Rice ([27]; Rate 125 g/ha)
70: Plant response rating, Pigweed [10] | Plant response rating, Velvetleaf [11] | Plant response rating, Cocklebur [16, 31] | Barnyardgrass plant response rating ([25]; Rate 250 g/ha) | Ducksalad plant response rating ([26]; Rate 250 g/ha) | Ducksalad plant response rating ([26]; Rate 500 g/ha) | Rice plant response rating ([27]; Rate 250 g/ha)
50: Plant response rating, Foxtail, Giant [19, 31] | Plant response rating, Flatsedge ([28]; Rate 62 g/ha) | Plant response rating, Flatsedge ([28]; Rate 125 g/ha)
10: Plant response rating, Ducksalad ([26]; Rate 62 g/ha)
60: Plant response rating, Morningglory [9]
90: Plant response rating, Lambsquarters [8]
20: Plant response rating, Ducksalad ([26]; Rate 125 g/ha)
0: Plant response rating, Surinam grass [1, 29] | Plant response rating, Surinam grass [1, 30] | Plant response rating, Barnyardgrass [2, 29] | Plant response rating, Barnyardgrass [2, 30] | Plant response rating, Blackgrass [3, 29] | Plant response rating, Blackgrass [3, 30] | Plant response rating, Corn [5, 29] | Plant response rating, Corn [5, 30] | Plant response rating, Crabgrass [6, 29] | Plant response rating, Crabgrass [6, 30] | Plant response rating, Foxtail, Giant [7, 29] | Plant response rating, Foxtail, Giant [7, 30] | Plant response rating, Wheat [12] | Plant response rating, Wild Oat [13] | Plant response rating, Surinam grass [14, 32] | Plant response rating, Barnyardgrass [15, 31] | Plant response rating, Cocklebur [16, 32] | Plant response rating, Corn [17, 31] | Plant response rating, Corn [17, 32] | Plant response rating, Foxtail, Giant [19, 32] | Plant response rating, Lambsquarters [20, 32] | Plant response rating, Morningglory [21, 31] | Plant response rating, Morningglory [21, 32] | Plant response rating, Rice [23, 31] | Plant response rating, Rice [23, 32] | Plant response rating, Velvetleaf [24, 32] | Plant response rating, Barnyardgrass ([25]; Rate 62 g/ha) | Plant response rating, Barnyardgrass ([25]; Rate 125 g/ha) | Plant response rating, Rice ([27]; Rate 62 g/ha)

— patent US7138361B2, “Herbicidal heterocycles” (E. I. du Pont de Nemours and Company, priority 2000, dated 2006)
